Where “and” joins values, the source holds several entries; their conditions need not be identical. Equal values may be shown once. Toxic doses and inconclusive results are not listed. Rule as the data show it: active = T/C of 150% or more; inactive = T/C below 125%.
Tested on: L1210 leukemia ip in BDF1 mice, survival T/C
Experiment: NCI In Vivo Anticancer Drug Screen. Data for tumor model L1210 Leukemia (intraperitoneal) in B6D2F1 (BDF1) mice
Settings: endpoint: mean survival time, higher = longer survival
Summary of the method: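 Ratio derived from survival: compound-dosed mice over vehicle-dosed mice, all bearing a transplantable tumor.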

[1] = dose: 50.0 mg/kg/injection, schedule: Q04DX003 (ip), vehicle: saline
[2] = dose: 100.0 mg/kg/injection, schedule: Q04DX003 (ip), vehicle: saline
[3] = dose: 100.0 mg/kg/injection, schedule: Q01DX009 (ip), vehicle: Klucel (hydroxypropylcellulose) (HPC)
[4] = dose: 100.0 mg/kg/injection, schedule: Q04DX002 (ip), vehicle: Klucel (hydroxypropylcellulose) (HPC)
[5] = dose: 200.0 mg/kg/injection, schedule: Q04DX002 (ip), vehicle: Klucel (hydroxypropylcellulose) (HPC)
[6] = dose: 400.0 mg/kg/injection, schedule: Q04DX002 (ip), vehicle: Klucel (hydroxypropylcellulose) (HPC)
[7] = dose: 200.0 mg/kg/injection, schedule: Q04DX003 (ip), vehicle: saline

Measured: T/C

CN1C2CCC1CC(OC(=O)c1ccccc1)C2 (stereo not given)
inactive: dose: 25.0 mg/kg/injection, schedule: Q04DX002 (ip), vehicle: saline with Tween-80 94 % of control | dose: 50.0 mg/kg/injection, schedule: Q04DX002 (ip), vehicle: saline with Tween-80 105 % of control | dose: 100.0 mg/kg/injection, schedule: Q04DX002 (ip), vehicle: saline with Tween-80 94 % of control

CN(C)CCCN1c2ccccc2Sc2ccc(Cl)cc21
inactive: dose: 0.77 mg/kg/injection, schedule: Q03HX024 (ip), vehicle: saline 104 % of control | dose: 0.78 mg/kg/injection, schedule: Q04DX024 (oral), vehicle: saline 98 % of control | dose: 1.55 mg/kg/injection, schedule: Q03HX024 (ip), vehicle: saline 109 % of control | dose: 1.56 mg/kg/injection, schedule: Q04DX003 (ip), vehicle: saline 101 % of control | dose: 1.56 mg/kg/injection, schedule: Q04DX024 (oral), vehicle: saline 90 % of control | dose: 2.0 mg/kg/injection, schedule: Q01DX009 (ip), vehicle: saline 95 % of control and 113 % of control | dose: 2.5 mg/kg/injection, schedule: Q01DX015 (ip), vehicle: saline 103 % of control | dose: 3.1 mg/kg/injection, schedule: Q03HX024 (ip), vehicle: saline 102 % of control | dose: 3.12 mg/kg/injection, schedule: Q01DX009 (ip), vehicle: saline 111 % of control | dose: 3.12 mg/kg/injection, schedule: Q04DX003 (ip), vehicle: saline 101 % of control | dose: 3.12 mg/kg/injection, schedule: Q04DX024 (oral), vehicle: saline 104 % of control | dose: 4.0 mg/kg/injection, schedule: Q01DX009 (ip), vehicle: saline 93 % of control and 106 % of control | dose: 5.0 mg/kg/injection, schedule: Q01DX015 (ip), vehicle: saline 105 % of control | dose: 6.2 mg/kg/injection, schedule: Q03HX024 (ip), vehicle: saline 109 % of control | dose: 6.25 mg/kg/injection, schedule: Q04DX003 (ip), vehicle: saline 102 % of control and 103 % of control | dose: 8.0 mg/kg/injection, schedule: Q01DX009 (ip), vehicle: saline 106 % of control and 120 % of control | dose: 8.0 mg/kg/injection, schedule: Q01DX015 (ip), vehicle: saline 104 % of control | dose: 10.0 mg/kg/injection, schedule: Q01DX009 (ip), vehicle: saline 111 % of control | dose: 10.0 mg/kg/injection, schedule: Q01DX015 (ip), vehicle: saline 105 % of control | dose: 12.0 mg/kg/injection, schedule: Q01DX015 (ip), vehicle: saline 115 % of control | dose: 12.4 mg/kg/injection, schedule: Q03HX024 (ip), vehicle: saline 116 % of control | dose: 12.5 mg/kg/injection, schedule: Q01DX001 (ip), vehicle: saline 94 % of control | dose: 12.5 mg/kg/injection, schedule: Q01DX009 (ip), vehicle: saline 110 % of control and 102 % of control | dose: 12.5 mg/kg/injection, schedule: Q04DX003 (ip), vehicle: saline 109 % of control [middle of 4 runs] | dose: 16.0 mg/kg/injection, schedule: Q01DX009 (ip), vehicle: saline 87 % of control | dose: 18.0 mg/kg/injection, schedule: Q01DX015 (ip), vehicle: saline 121 % of control | dose: 18.75 mg/kg/injection, schedule: Q01DX001 (ip), vehicle: saline 113 % of control and 123 % of control | dose: 18.75 mg/kg/injection, schedule: Q01DX009 (ip), vehicle: saline 101 % of control | dose: 20.0 mg/kg/injection, schedule: Q01DX009 (ip), vehicle: saline 108 % of control | dose: 20.0 mg/kg/injection, schedule: Q01DX Z (ip), vehicle: methylcellulose (MC) 108 % of control | dose: 20.0 mg/kg/injection, schedule: Q04DX003 (ip), vehicle: saline 115 % of control | dose: 25.0 mg/kg/injection, schedule: Q01DX001 (ip), vehicle: saline 101 % of control | dose: 25.0 mg/kg/injection, schedule: Q01DX009 (ip), vehicle: saline 105 % of control | dose: 25.0 mg/kg/injection, schedule: Q04DX003 (ip), vehicle: saline 109 % of control [middle of 4 runs] | dose: 26.0 mg/kg/injection, schedule: Q04DX003 (ip), vehicle: saline 121 % of control | dose: 27.0 mg/kg/injection, schedule: Q01DX015 (ip), vehicle: saline 106 % of control | dose: 30.0 mg/kg/injection, schedule: Q01DX Z (ip), vehicle: methylcellulose (MC) 117 % of control | dose: 37.5 mg/kg/injection, schedule: Q01DX001 (ip), vehicle: saline 120 % of control | dose: 37.5 mg/kg/injection, schedule: Q01DX009 (ip), vehicle: saline 120 % of control | dose: 40.0 mg/kg/injection, schedule: Q01DX015 (ip), vehicle: saline 112 % of control | dose: 40.0 mg/kg/injection, schedule: Q04DX003 (ip), vehicle: saline 106 % of control | dose: 45.0 mg/kg/injection, schedule: Q01DX Z (ip), vehicle: methylcellulose (MC) 100 % of control | dose: 50.0 mg/kg/injection, schedule: Q01DX001 (ip), vehicle: saline 108 % of control | dose: 50.0 mg/kg/injection, schedule: Q01DX009 (ip), vehicle: saline 121 % of control | [1] 101 % of control and 113 % of control | dose: 60.0 mg/kg/injection, schedule: Q01DX015 (ip), vehicle: saline 117 % of control | dose: 67.5 mg/kg/injection, schedule: Q01DX Z (ip), vehicle: methylcellulose (MC) 99 % of control | dose: 75.0 mg/kg/injection, schedule: Q04DX003 (ip), vehicle: saline 116 % of control | dose: 90.0 mg/kg/injection, schedule: Q01DX015 (ip), vehicle: saline 104 % of control | dose: 100.0 mg/kg/injection, schedule: Q01DX009 (ip), vehicle: saline 89 % of control | [2] 99 % of control

CCOC(=O)c1ccc(NC(=O)Oc2ccc(C=O)cc2OC)cc1
inactive: [3] 93 % of control | dose: 200.0 mg/kg/injection, schedule: Q01DX009 (ip), vehicle: Klucel (hydroxypropylcellulose) (HPC) 101 % of control | dose: 400.0 mg/kg/injection, schedule: Q01DX009 (ip), vehicle: Klucel (hydroxypropylcellulose) (HPC) 95 % of control

COC(=O)c1ccc(C(=O)OC)o1
inactive: [4] 113 % of control | [5] 98 % of control | [6] 106 % of control

CCOC(=O)Nc1ccc2c(c1)/C(=N\NC(N)=S)c1ccccc1-2
inactive: dose: 50.0 mg/kg/injection, schedule: Q01DX001 (ip), vehicle: carboxymethylcellulose (CMC) 94 % of control | [1] 86 % of control | dose: 75.0 mg/kg/injection, schedule: Q01DX009 (ip), vehicle: saline with Tween-80 101 % of control | dose: 100.0 mg/kg/injection, schedule: Q01DX001 (ip), vehicle: carboxymethylcellulose (CMC) 102 % of control | dose: 100.0 mg/kg/injection, schedule: Q01DX001 (ip), vehicle: saline 93 % of control | [2] 92 % of control | dose: 150.0 mg/kg/injection, schedule: Q01DX009 (ip), vehicle: saline with Tween-80 113 % of control | dose: 200.0 mg/kg/injection, schedule: Q01DX001 (ip), vehicle: carboxymethylcellulose (CMC) 105 % of control | dose: 200.0 mg/kg/injection, schedule: Q01DX001 (ip), vehicle: saline 96 % of control | [7] 100 % of control | dose: 400.0 mg/kg/injection, schedule: Q01DX001 (ip), vehicle: carboxymethylcellulose (CMC) 100 % of control

CC(C)C1(C)C(=O)N(C)C(=O)N1Br (stereo not given)
inactive: dose: 50.0 mg/kg/injection, schedule: Q01DX009 (ip), vehicle: Klucel (hydroxypropylcellulose) (HPC) 102 % of control | dose: 50.0 mg/kg/injection, schedule: Q04DX003 (ip), vehicle: Klucel (hydroxypropylcellulose) (HPC) 100 % of control | dose: 100.0 mg/kg/injection, schedule: Q01DX001 (ip), vehicle: Klucel (hydroxypropylcellulose) (HPC) 107 % of control | [3] 96 % of control | dose: 100.0 mg/kg/injection, schedule: Q04DX003 (ip), vehicle: Klucel (hydroxypropylcellulose) (HPC) 97 % of control | dose: 200.0 mg/kg/injection, schedule: Q01DX001 (ip), vehicle: Klucel (hydroxypropylcellulose) (HPC) 98 % of control | dose: 200.0 mg/kg/injection, schedule: Q04DX003 (ip), vehicle: Klucel (hydroxypropylcellulose) (HPC) 105 % of control | dose: 400.0 mg/kg/injection, schedule: Q01DX001 (ip), vehicle: Klucel (hydroxypropylcellulose) (HPC) 98 % of control

COC(=O)c1cc(Cl)cc(N)c1Cl
inactive: [4] 98 % of control | [5] 98 % of control | [6] 91 % of control

O=c1[nH]c(=O)n(C2CC=CO2)cc1F (stereo not given)
inactive: [2] 111 % of control | [7] 113 % of control | dose: 400.0 mg/kg/injection, schedule: Q04DX003 (ip), vehicle: saline 117 % of control
